Assay results as given in PubChem BioAssay (NCI).
Values joined by “and” are separate entries in the source; they are usually repeats but may differ in a detail not shown here. Equal entries are not always repeated.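 Five concentrations, 48 hours, 96-well plates. Here, GI50 denotes the concentration required for 50% inhibition of growth. TGI denotes the concentration required for complete inhibition of growth.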

Assays:
Experiment in all cases: NCI anticancer screen, dose series, 48 h
HCT-116 colon = system: HCT-116 colon
HCT-15 colon = system: HCT-15 colon
MCF7 breast = system: MCF7 breast
NCI-H226 lung = system: NCI-H226 lung
OVCAR-4 ovarian = system: OVCAR-4 ovarian
OVCAR-5 ovarian = system: OVCAR-5 ovarian
OVCAR-8 ovarian = system: OVCAR-8 ovarian
SK-MEL-2 melanoma = system: SK-MEL-2 melanoma
SK-MEL-5 melanoma = system: SK-MEL-5 melanoma
SR leukemia = system: SR leukemia
DU-145 prostate = system: DU-145 prostate

Compound | TGI (HCT-116 colon) | TGI (HCT-15 colon) | TGI (MCF7 breast) [µM] | TGI (NCI-H226 lung) | TGI (OVCAR-4 ovarian) | TGI (OVCAR-5 ovarian) [µM] | TGI (OVCAR-8 ovarian) [µM] | TGI (SK-MEL-2 melanoma) | TGI (SK-MEL-5 melanoma) | TGI (SR leukemia) | TGI (DU-145 prostate) [µM] | GI50 (NCI-H226 lung) | GI50 (SK-MEL-5 melanoma) | GI50 (SR leukemia)
ClCCCCCc1c2nc(c(CCCCCCl)c3ccc([nH]3)c(CCCCCCl)c3ccc([nH]3)c(CCCCCCl)c3nc1C=C3)C=C2 | > 100 µM | > 100 µM | > 100 | > 100 µM | > 100 µM | > 100 | > 100 | > 100 µM | > 100 µM | > 100 µM | – | – | – | –
CNc1nc(C(N)=O)c(N)s1 | > 100 µM | > 100 µM | – | > 100 µM | > 100 µM | > 100 | > 100 | > 100 µM | > 100 µM | – | > 100 | – | – | –
CC1(C)N=C(C2CCCN2C(=O)OCc2ccccc2)OC1=O (stereo unspecified) | > 100 µM | > 100 µM | > 100 | > 100 µM | – | > 100 | > 100 | > 100 µM | > 100 µM | – | > 100 | – | – | –
CCN1CN(c2ccccc2)C2(CCN(CC(CC3OCCO3)c3ccc(F)cc3)CC2)C1=O (stereo unspecified) | 11 µM | > 67.5 µM | 7.22 | 65 µM | 36.3 µM | 25.4 | > 100 | 46.8 µM | 15.2 µM | > 100 µM | – | – | – | –
COc1ccc(-c2oc3c(OC)c(OC)cc(O)c3c(=O)c2OC)cc1 | > 100 µM | > 100 µM | > 100 | > 100 µM | > 100 µM | > 100 | > 100 | > 100 µM | > 100 µM | – | > 100 | – | – | –
Cc1nc2sccn2c1/C=C1/C(=O)Nc2cccc(Cl)c21 | > 100 µM | > 100 µM | > 100 | – | – | > 100 | > 100 | > 100 µM | > 100 µM | > 100 µM | > 100 | – | – | –
O=c1cc(-c2cccnc2)[nH]c2cc3c(cc12)OCO3 | > 100 µM | > 64.3 µM | > 100 | > 89.6 µM | > 100 µM | > 100 | > 95.3 | > 100 µM | 23.9 µM | – | > 100 | – | – | –
O=c1oc2c(Cl)cc(Cl)cc2cc1C1=CSC2=NCCN12 | > 100 µM | > 100 µM | 88.9 | – | > 100 µM | > 100 | > 100 | > 100 µM | 88.8 µM | > 100 µM | > 100 | – | – | –
COc1cc(C2c3cc4c(cc3[C@@H](NCCN3CCOCC3)C3COC(=O)[C@H]23)OCO4)cc(OC)c1O (stereo partly specified) | 15.8 µM and > 17.5 µM | 15.7 µM and 14.2 µM | – | 1.29 µM and 1.64 µM | 39.3 µM and > 17.5 µM | – | 11.9 | 14.5 µM and 11.3 µM | 1.88 µM and 12.7 µM | 11.1 µM and 1.3 µM | – | 0.155 µM and 0.385 µM | 0.877 µM and 2.77 µM | 0.0227 µM and 0.0625 µM
CCOC(=O)c1nnc2c(C#N)c(-c3ccccc3)c(C)n2c1N | > 100 µM | > 100 µM | > 100 | – | 43.6 µM | > 100 | 98.3 | > 100 µM | > 100 µM | > 100 µM | > 100 | – | – | –
CC(=O)OC(Cc1c(O)c2c(C)cccc2oc1=O)C(C)(C)O (stereo unspecified) | > 100 µM | > 100 µM | > 100 | > 100 µM | – | > 100 | > 100 | > 100 µM | > 100 µM | > 100 µM | > 100 | – | – | –
CNC1(C(=O)O)CC1 | > 100 µM | > 100 µM | > 100 | > 100 µM | > 100 µM | > 100 | > 100 | – | > 100 µM | > 100 µM | > 100 | – | – | –
Cc1ccc(N/C(SCc2ccccc2)=C(\C(Cl)=C(Cl)Cl)[N+](=O)[O-])c(C)c1 | 37 µM | 34.9 µM | > 100 | > 100 µM | 54 µM | 89.8 | 32.7 | > 100 µM | – | – | > 100 | – | – | –
Cc1ccc(Nc2nc3c(=O)n(C)c(=O)n(C)c3nc2Nc2ccc(C)cc2)cc1 | 22.1 µM | 11.8 µM | – | > 100 µM | 23.9 µM | 31.2 | 26.8 | 33.5 µM | 31 µM | > 100 µM | > 100 | – | – | –
CN(C)Cc1cc(N=Nc2ccc(Cl)cc2)cc(CN(C)C)c1O | 17.5 µM | 21 µM | 21.3 | 17.7 µM | – | – | 12.7 | 27.8 µM | 21.1 µM | 22.8 µM | 35.4 | – | – | –
CCCCCCCCCCCCCCCCCCOCC(O)COP(=O)(O)OCC1OC(n2ccc(N)nc2=O)C(O)C1O (stereo unspecified) | > 100 µM | 47.9 µM | > 100 | > 100 µM | > 100 µM | > 100 | 24.3 | – | > 100 µM | 40.4 µM | > 100 | – | – | –
OC1CSc2nc3ccccc3n2C1 (stereo unspecified) | > 100 µM | > 100 µM | > 100 | > 100 µM | – | > 100 | > 100 | – | > 100 µM | > 100 µM | > 100 | – | – | –
Nc1nc(-c2ccco2)cc(-c2ccc(CO)o2)n1 | > 100 µM | > 100 µM | – | > 100 µM | > 100 µM | > 100 | > 100 | > 100 µM | > 100 µM | > 100 µM | – | – | – | –
N#Cc1c(-c2ccccc2)c(CN2CCCCC2)c(=O)n2c1[nH]c1ccccc12 | > 100 µM | > 100 µM | > 100 | > 100 µM | > 100 µM | > 100 | > 100 | > 100 µM | 34.1 µM | – | – | – | – | –
CC(=O)CC1=C(OC(C)C)C2(OCCO2)C1O (stereo unspecified) | > 100 µM | > 100 µM | > 100 | > 100 µM | > 100 µM | > 100 | > 100 | > 100 µM | > 100 µM | – | > 100 | – | – | –
Cc1ccc2c(/C=C/c3ccc(N(C)C)cc3)ccc(C(C)C)cc1-2 | > 100 µM | – | > 100 | > 100 µM | – | > 100 | > 100 | > 100 µM | > 100 µM | > 100 µM | > 100 | – | – | –
COc1cccc(/C=C2\S/C(=N/Nc3nc(-c4ccc([N+](=O)[O-])cc4)cs3)NC2=O)c1O | 27.8 µM | 33.9 µM | 38.2 | 47.3 µM | – | 54.7 | 48.3 | – | 25.5 µM | 74.9 µM | 68.1 | – | – | –
